As a reminder, the inhibition is the share of the control response that was lost under treatment. Higher therefore signals strong suppression.

These results are taken from paper PMC5766608, “Target engagement imaging of PARP inhibitors in small-cell lung cancer” (Nature Communications, 2018).

Assay [1] concerns the target T1, TNKS2 (Homo sapiens, UniProt Q9H2K2).
T1 construct: purchased BPS Bioscience, San Diego, CA
T1 sequence (Q9H2K2 1-1166): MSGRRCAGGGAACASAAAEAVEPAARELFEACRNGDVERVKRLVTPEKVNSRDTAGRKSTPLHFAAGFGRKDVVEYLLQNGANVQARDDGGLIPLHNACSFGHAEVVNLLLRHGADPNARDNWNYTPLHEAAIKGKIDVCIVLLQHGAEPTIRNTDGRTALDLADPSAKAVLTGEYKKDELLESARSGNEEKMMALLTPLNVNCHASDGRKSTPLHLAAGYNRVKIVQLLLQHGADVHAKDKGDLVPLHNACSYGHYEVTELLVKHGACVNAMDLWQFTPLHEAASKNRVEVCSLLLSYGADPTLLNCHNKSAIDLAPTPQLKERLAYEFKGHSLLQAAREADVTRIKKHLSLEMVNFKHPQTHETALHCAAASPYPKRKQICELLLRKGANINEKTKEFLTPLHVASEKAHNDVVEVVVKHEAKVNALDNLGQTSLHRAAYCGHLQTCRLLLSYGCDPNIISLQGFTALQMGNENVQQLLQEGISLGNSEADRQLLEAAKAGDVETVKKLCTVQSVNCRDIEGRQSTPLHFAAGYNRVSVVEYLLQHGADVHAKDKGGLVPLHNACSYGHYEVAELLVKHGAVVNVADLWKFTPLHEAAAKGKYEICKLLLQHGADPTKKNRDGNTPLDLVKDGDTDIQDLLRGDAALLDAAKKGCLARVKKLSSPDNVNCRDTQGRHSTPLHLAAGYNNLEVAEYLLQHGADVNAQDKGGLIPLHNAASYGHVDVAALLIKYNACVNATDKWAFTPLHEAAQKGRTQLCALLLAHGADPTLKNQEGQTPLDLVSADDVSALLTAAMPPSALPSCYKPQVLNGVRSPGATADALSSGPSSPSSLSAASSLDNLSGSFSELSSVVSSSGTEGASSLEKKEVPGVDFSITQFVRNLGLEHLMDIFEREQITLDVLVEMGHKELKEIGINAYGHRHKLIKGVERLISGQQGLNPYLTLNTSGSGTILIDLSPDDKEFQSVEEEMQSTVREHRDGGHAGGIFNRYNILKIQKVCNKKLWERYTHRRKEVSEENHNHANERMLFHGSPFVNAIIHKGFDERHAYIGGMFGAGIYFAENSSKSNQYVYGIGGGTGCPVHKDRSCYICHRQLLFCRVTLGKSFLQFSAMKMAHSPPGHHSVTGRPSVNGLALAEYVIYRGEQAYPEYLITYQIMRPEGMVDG
Description: PARP family enzyme activity inhibition screening (BPS Bioscience). Format: biochemical. To be noted: 100 nM inhibitor. The method, then:
(§1) Fig. 1 Properties of PARP inhibitors. a Structures of 5 clinical therapeutic PARP inhibitors and the 2 PARP imaging agents. b Heatmap visualizing enzymatic activity screening of 10 small molecules against 12 PARP enzymes at 100 nM concentration (for additional concentrations, see Supplementary Fig. 1)
(§2) Assay was performed by BPS Bioscience, San Diego, CA. 100 µM DMSO solutions of each inhibitor were provided, and the assay was conducted after dilution to 100, 50, or 10 nM. […] Data was reported by BPS as % Enzyme Activity. Triplicates were combined to get a mean ± SD, and these were grouped and plotted onto a heatmap using Prism 7.
(§3) Supplementary Figure 1 | PARP enzyme family binding assays at additional concentrations.
(§4) histone substrate and biotin-labeled NAD+ at 100 nM (Fig. 1b), 50 nM (left) and 10 nM (right) for
(§5) each inhibitor and each enzyme.

Assay [2] deals with T2, TNKS1 (Homo sapiens, UniProt O95271).
T2 construct: purchased BPS Bioscience, San Diego, CA
T2 sequence (O95271 1-1327): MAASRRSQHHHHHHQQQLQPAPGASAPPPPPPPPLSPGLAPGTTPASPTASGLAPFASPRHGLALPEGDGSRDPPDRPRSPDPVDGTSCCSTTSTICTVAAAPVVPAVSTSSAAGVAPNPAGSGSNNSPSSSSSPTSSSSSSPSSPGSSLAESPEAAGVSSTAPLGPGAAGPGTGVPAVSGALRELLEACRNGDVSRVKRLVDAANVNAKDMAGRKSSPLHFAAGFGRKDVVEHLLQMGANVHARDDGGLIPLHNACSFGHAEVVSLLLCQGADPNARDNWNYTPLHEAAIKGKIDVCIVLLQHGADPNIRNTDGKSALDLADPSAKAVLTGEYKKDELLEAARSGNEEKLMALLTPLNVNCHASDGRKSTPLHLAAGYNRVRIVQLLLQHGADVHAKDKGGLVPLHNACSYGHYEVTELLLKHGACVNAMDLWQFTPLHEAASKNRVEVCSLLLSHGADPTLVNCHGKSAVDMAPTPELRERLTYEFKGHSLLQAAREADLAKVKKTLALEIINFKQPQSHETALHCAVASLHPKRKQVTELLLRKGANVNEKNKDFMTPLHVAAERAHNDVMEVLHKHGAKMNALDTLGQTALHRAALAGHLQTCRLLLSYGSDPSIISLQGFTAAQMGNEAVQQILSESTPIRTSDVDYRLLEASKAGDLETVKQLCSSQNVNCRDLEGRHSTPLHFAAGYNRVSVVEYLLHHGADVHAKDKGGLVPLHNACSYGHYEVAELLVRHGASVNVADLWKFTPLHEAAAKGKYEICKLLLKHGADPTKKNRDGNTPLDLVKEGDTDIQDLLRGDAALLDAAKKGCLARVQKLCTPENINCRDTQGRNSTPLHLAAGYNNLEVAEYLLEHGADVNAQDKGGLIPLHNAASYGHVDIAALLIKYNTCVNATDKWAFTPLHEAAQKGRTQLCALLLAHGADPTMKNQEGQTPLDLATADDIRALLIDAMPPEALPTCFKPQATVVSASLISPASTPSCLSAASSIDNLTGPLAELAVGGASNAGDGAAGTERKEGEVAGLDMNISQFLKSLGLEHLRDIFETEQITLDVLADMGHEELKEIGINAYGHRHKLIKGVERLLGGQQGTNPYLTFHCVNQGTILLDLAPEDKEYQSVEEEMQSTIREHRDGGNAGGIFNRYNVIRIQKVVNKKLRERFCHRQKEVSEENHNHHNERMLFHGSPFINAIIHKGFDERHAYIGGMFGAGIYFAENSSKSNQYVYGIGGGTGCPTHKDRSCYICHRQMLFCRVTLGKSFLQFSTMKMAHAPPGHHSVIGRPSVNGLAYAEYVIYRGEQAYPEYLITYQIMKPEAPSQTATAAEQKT
Described as above. Format: biochemical. To be noted: 100 nM inhibitor. The method, then: as §1, §2, §3, §4, §5

Regarding `CC1=CC(C)=[N+]2C1=Cc1ccc(CCC(=O)N3CCN(C(=O)c4cc(Cc5n[nH]c(=O)c6ccccc56)ccc4F)CC3)n1[B-]2(F)F` [PARPi-FL], the inhibition at 0.1 µM in assay [1] and in assay [2] was no more than 5% throughout.

As to `Cn1ncnc1[C@H]1c2n[nH]c(=O)c3cc(F)cc(c23)N[C@@H]1c1ccc(F)cc1` [Talazoparib, (8S,9R)-5-Fluoro-8-(4-fluorophenyl)-9-(1-methyl-1H-1,2,4-triazol-5-yl)-2,7,8,9-tetrahydro-3H-pyrido[4,3,2-de]phthalazin-3-one], the “Inhibition of TNKS2 enzyme activity” value in assay [1] was “exhibited inhibition”. For the same compound, the “Inhibition of TNKS1 enzyme activity” value in assay [2] is reported as “exhibited inhibition”.

With `O=C(c1ccc(F)cc1)N1CCN(C(=O)c2cc(Cc3n[nH]c(=O)c4ccccc34)ccc2F)CC1` [^19F-PARPi], in assay [1], the “Inhibition of TNKS2 enzyme activity” value is reported as no more than 5%. In assay [2], the “Inhibition of TNKS1 enzyme activity” value is listed as no more than 5%.
